Results from US9895439B2, “Combined treatment with netrin-1 interfering drug and chemotherapeutic drug” (NETRIS PHARMA, priority 2012, dated 2018).
Numbered stars: 1 amine (or outer) side, 2 acyl side, 3 side chain; on linkers, the order of the positions; unused ones are H or OH. Bridge positions count the residues as written; N and C are the ends. Square brackets hold non-standard residues; d marks the D form. Peptide text beside a SMILES is read from it. I, II: the chains in the order shown. Actinocin(9to1) = Cc1c2oc3c(C)ccc(C(=O)[*:1])c3nc-2c(C(=O)[*:2])c(N)c1=O; NMeV = CN[C@H](C(=O)O)C(C)C; Sar = CNCC(=O)O

Key:
[1] = system: DCC expression in panel of 15 cancer cell lines; conditions: drug at IC10, IC30, IC50 or ICMAX, 24 hours
[2] = system: Netrin-1 gene expression in A549 lung cancer cell line; experiment: Netrin-1 gene expression by quantitative RT-PCR in A549 cells; assay type: cell-based, human; conditions: 24 hours
[3] = system: UNC5C gene expression in A549 cells; experiment: Netrin-1 receptor gene expression in A549 cells: UNC5C; assay type: cell-based, human; conditions: A549 cells following Doxorubicin treatment
[4] = system: UNC5D expression in panel of 15 cancer cell lines; conditions: drug at IC10, IC30, IC50 or ICMAX, 24 hours
[5] = system: A549 cells; experiment: DNA fragmentation in A549 cells; assay type: cell-based, human; conditions: A549 transfected with scramble siRNA (siCTRL), Doxorubicin 24 hours
Protocol: (§1) FIGS. 13-14: Netrin-1 silencing triggers apoptosis in combination with Doxorubicin treatment. A549 cells were transfected as in (FIGS. 10-12), and treated with the indicated Doxorubicin concentrations for 24 hours. […] DoxoR, Doxorubicin.

[6] = system: DCC gene expression in A549 cells; experiment: Netrin-1 receptor gene expression in A549 cells: DCC; assay type: cell-based, human; conditions: A549 cells following Doxorubicin treatment
[7] = system: UNC5A gene expression in A549 cells; experiment: Netrin-1 receptor gene expression in A549 cells: UNC5A; assay type: cell-based, human; conditions: A549 cells following Doxorubicin treatment
[8] = system: UNC5B expression in panel of 15 cancer cell lines; conditions: drug at IC10, IC30, IC50 or ICMAX, 24 hours
[9] = system: A549 cells engrafted in nude mice; experiment: A549 xenograft in athymic nude mice, tumor growth; assay type: in vivo; conditions: i.p. twice a week for two weeks, TRAP-netrin^UNC5A 20 mg/kg, Doxorubicin 2 mg/kg, alone or combined
Protocol: FIG. 22: Netrin-1 interfering potentiates Doxorubicin anti-cancer effect in a preclinical animal model. A549 cells were engrafted in seven-weeks old female athymic nude mice. Once tumors reached a 100 mm^3-volume, mice were treated intraperitoneally with TRAP-netrin^UNC5A (20 mg/kg), Doxorubicin (2 mg/kg) or with a combination of both drugs, twice a week for two weeks. As a control, mice were injected with PBS. Histogram represents tumor volume growth for each group as a function of days post-xenografts.
Seven-week-old (20-22 g body weight) female athymic nu/nu mice were obtained from Charles River animal facility. The mice were housed in sterilized filter-topped cages and maintained in a pathogen-free animal facility. A549 cells were implanted by s.c. injection of 10^7 cells in 200 μL of PBS into the right flank of the mice. Once tumors were established (V≈100 mm^3), mice were treated with netrin-1 interfering drugs and/or cytotoxic drugs for two weeks. Tumor sizes were measured with a caliper. The tumor volume was calculated with the formula v=0.5*(length*width^2). At the end of the treatment, tumors were harvested, weighted and were embedded in 7.5% gelatin—0.12M sucrose and sectioned into 20 μm slices.
We then assessed whether the in vitro effect seen above could be translated in vivo in a therapeutic perspective. […]

[10] = system: UNC5B gene expression in A549 cells; experiment: Netrin-1 receptor gene expression in A549 cells: UNC5B; assay type: cell-based, human
[11] = system: UNC5D gene expression in A549 cells; experiment: Netrin-1 receptor gene expression in A549 cells: UNC5D; assay type: cell-based, human; conditions: A549 cells following Doxorubicin treatment
[12] = system: Netrin-1 protein in A549 cells; experiment: Netrin-1 protein levels by western blotting in A549 cells; assay type: cell-based, human; conditions: A549, 1 μM and 2 μM Doxorubicin, 48 hours, normalized to β-actin
Protocol: For immunoblot analysis, cells were lysed by sonication in modified RIPA buffer (50 mM Tris-HCl, pH7.5, 150 mM NaCl, 1% NP-40, 0.5% sodium deoxycholate, 0.1% SDS, 1 mM EDTA, protease inhibitor cocktail and 5 mM DTT) and incubated 1 h at 4° C. Cellular debris were pelletted by centrifugation (10.000 g 15′ at 4° C.) and protein extracts (200 μg per lane) were loaded onto 10% SDS-polyacrylamide gels and blotted onto PVDF sheets (Millipore Corporation, Billerica, Mass., U.S.A.). Filters were blocked with 10% non-fat dried milk and 5% BSA in PBS/0.1% Tween 20 (PBS-T) over-night and then incubated for 2 h with rabbit polyclonal α-netrin-1 (dilution 1:500, clone H104, Santa Cruz Biotechnology, Santa Cruz, Calif., USA) and mouse monoclonal β-actin (Santa Cruz Biotechnologies) antibodies. After three washes with PBS-T, filters were incubated with the appropriate HRP-conjugated secondary antibody (1:10000, Jackson ImmunoResearch, Suffolk, UK) for 1 h. Detection was performed using West Dura Chemiluminescence System (Pierce, Rockford, Ill., U.S.A.).

[13] = system: A549 cells; experiment: Caspase-3 activity assay in A549 cells; assay type: cell-based, human; conditions: A549 transfected with scramble siRNA (siCTRL), Doxorubicin 24 hours
Protocol: as §1

[14] = system: Netrin-1 gene expression in H460 lung cancer cell line; experiment: Netrin-1 gene expression by quantitative RT-PCR in H460 cells; conditions: H460, 2 μM Doxorubicin, 24 hours, normalized with GAPDH, compared to not-treated cells
[15] = system: A549 cells; experiment: Cell death rate by ToxiLight bioluminescent cytotoxicity assay in A549 cells; conditions: 48 hours; for Potentiation of Doxorubicin-induced cell death (toxilight): A549, 2 μg/mL fusion protein plus Doxorubicin
Protocol: Cell death rate (FIG. 10), measured by toxilight kit as described in materials and methods section, and cell survival (FIG. 11), was evaluated 48 hours after treatment. Results were normalized to control, untreated cells.
A549 cells were transfected with scramble siRNA (siCTRL), netrin-1-specific siRNA (siNet), UNC5B-specific siRNA (siUnc5B) and with a combination of netrin-1 and UNC5B-targeting siRNA. 24 hours after transfection, cells were treated with the indicated Doxorubicin concentrations for 48 hours, and cell death rate was measured by toxilight and normalized to control, untreated cells.
FIGS. 16-17: A549 cells were treated for 48 hours with the indicated Doxorubicin concentrations in presence or not of 2 μg/mL TRAP-netrin^DCC (FIG. 16) and TRAP-netrin^Unc5A (FIG. 17). […] Results were normalized to untreated cells. *, P<0.05; **, P<0.01; ***, P<0.001.
Cell death was evaluated by means of different methods. For total cell death assays, 5*10^3 cells per well were grown in 96-well plate in serum-poor medium and treated with Doxorubicin. 48 hours later, cell death was evaluated using the bioluminescent cytotoxicity assay ToxiLight (Lonza, Basel, Switzerland), according to manufacturer's instruction. […] Cell survival was measured by MTS assay (CellTiter 96 AQueous One Solution Cell Proliferation Assay, Promega) in 96-well plates. MTS assay was performed according to the manufacturer's procedures on 3*10^3 cells grown in serum-poor medium for 16 hours and then treated for 48 hours with the indicated Doxorubicin concentrations in serum-free medium.

[16] = system: netrin-1 expressing tumor cells; experiment: Death of netrin-1 expressing tumor cells in vitro (not shown); assay type: cell-based; conditions: data not shown
[17] = system: MiaPacA cells; experiment: Cell survival by MTS assay in MiaPacA cells; assay type: cell-based, human; conditions: 48 hours
[18] = system: A549 cells; experiment: Cell survival by MTS assay in A549 cells; conditions: 48 hours
Protocol: FIGS. 18-19: A549 cells were treated with PBS or 2 μg/mL TRAP-netrin^Unc5A, in presence of the indicated concentrations of 5-Fluorouracil (5-FU, FIG. 18) or Cisplatin (FIG. 19). 48 hours after co-treatment, cell survival was measured by MTS and normalized to untreated cells. *, P<0.05; **, P<0.01; ***, P<0.001.
Cell survival was measured by MTS assay (CellTiter 96 AQueous One Solution Cell Proliferation Assay, Promega) in 96-well plates.

O=c1[nH]cc(F)c(=O)[nH]1 [5FU, 5-Fluorouracil]
cell lines with up-regulation of DCC [1]: 43%

Cc1c2oc3c(C)ccc(C(=O)N[C@@H]4C(=O)N[C@H](C(C)C)C(=O)N5CCC[C@H]5C(=O)N(C)CC(=O)N(C)[C@@H](C(C)C)C(=O)O[C@@H]4C)c3nc-2c(C(=O)N[C@@H]2C(=O)N[C@H](C(C)C)C(=O)N3CCC[C@H]3C(=O)N(C)CC(=O)N(C)[C@@H](C(C)C)C(=O)O[C@@H]2C)c(N)c1=O [Actinomycin D] (I: T[dV]P[Sar][NMeV] / II: T[dV]P[Sar][NMeV]; ester I:1-I:C, II:1-II:C; linker I:N-II:N via Actinocin(9to1))
Effect on Doxorubicin-mediated netrin-1 up-regulation ([2]; A549, 2 μM Doxorubicin plus Actinomycin D 100 μg/ml): fully prevents

N.N.[Cl][Pt][Cl] [Cisplatin]
cell lines with up-regulation of DCC [1]: 36%

COc1cccc2c1C(=O)c1c(O)c3c(c(O)c1C2=O)C[C@@](O)(C(=O)CO)C[C@@H]3O[C@H]1C[C@H](N)[C@H](O)[C@H](C)O1 [Doxorubicin]
UNC5C gene expression [3]: non-significant variations
cell lines with up-regulation of UNC5D [4]: 67%
Apoptosis (DNA fragmentation) [5]: failed to induce apoptosis
DCC gene expression [6]: significantly up-regulated
UNC5A gene expression [7]: significantly up-regulated
cell lines with up-regulation of UNC5B [8]: 80%
Tumor growth inhibition [9]: detectable but weak tumor growth inhibiting effect
UNC5B gene expression ([10]; A549 cells following Doxorubicin treatment, result in words): significantly up-regulated
UNC5B receptor level increase ([10]; A549 cells treated with Doxorubicin): 44 folds
UNC5D gene expression [11]: non-significant variations
cell lines with up-regulation of DCC [1]: 87%
netrin-1 mRNA level increase ([2]; A549, 2 μM Doxorubicin, normalized with GAPDH, compared to not-treated cells): 430 fold
Netrin-1 protein levels [12]: strongly accumulated
Apoptosis (active caspase-3) [13]: failed to induce apoptosis
netrin-1 mRNA level increase [14]: 300 fold
Cell death rate and cell survival under Doxorubicin ([15]; A549 scramble siRNA-transfected cells, increasing Doxorubicin concentrations): general resistance

CC(=O)O[C@H]1C(=O)[C@@]2(C)[C@H]([C@H](OC(=O)c3ccccc3)[C@]3(O)C[C@H](OC(=O)[C@H](O)[C@@H](NC(=O)c4ccccc4)c4ccccc4)C(C)=C1C3(C)C)[C@]1(OC(C)=O)CO[C@@H]1C[C@@H]2O [Taxol, paclitaxel]
cell lines with up-regulation of DCC [1]: 53%

TRAP-netrin^UNC5A: two immunoglobin (Ig1-Ig2) domains of the UNC5A ectodomain fused to IgG1 Fc portion; SEQ ID NO: 1
Death of netrin-1 expressing tumor cells in vitro [16]: trigger death of netrin-1 expressing tumor cells
Tumor growth inhibition [9]: detectable but weak tumor growth inhibiting effect
Cell death, co-treatment with 5FU (cell survival by MTS) ([17]; 2 μg/mL fusion protein plus 5FU): potentiated cell death
Cell death, co-treatment with Doxorubicin (cell survival by MTS) ([17]; 2 μg/mL fusion protein plus Doxorubicin): potentiated cell death
Potentiating effect on cell death, co-treatment with 5FU (cell survival by MTS) ([18]; A549, 2 μg/mL fusion protein plus 5FU): Comparable potentiating effect on cell death
Potentiating effect on cell death, co-treatment with Cisplatin (cell survival by MTS) ([18]; A549, 2 μg/mL fusion protein plus Cisplatin): Comparable potentiating effect on cell death
Potentiation of Doxorubicin-induced cell death (toxilight) [15]: strongly potentiate

B1: TRAP-netric^DCC: fifth fibronectin domain of DCC ectodomain fused to IgG1 Fc portion (protein)
chain: PPVGVQAVALTHDAVRVSWADNSVPKNQKTSEVRLYTVRWRTSFSASAKYKSEDTTSLSYTATGLKPNTMYEFSVMVTKNRRSSTWSMTAHATTYEA
modifications: left off: a dimerising Fc or GST
notes: fifth fibronectin domain of DCC ectodomain fused to IgG1 Fc portion
Death of netrin-1 expressing tumor cells in vitro [16]: trigger death of netrin-1 expressing tumor cells
Potentiation of Doxorubicin-induced cell death (toxilight) [15]: strongly potentiate
